Patent EP4534088A1, “ARFOLITIXORIN FOR USE IN VITAMIN B6-ENHANCED, 5-FLUOROURACIL-BASED CHEMOTHERAPY OF CARCINOMAS” (priority 2023, dated 2025)

What was measured:
thymidylate synthase = target: T1, thymidylate synthase (Homo sapiens, UniProt P04818); experiment: Modelle-001 Phase II clinical trial: TS inhibition in colorectal liver metastases (LC-MS/MS); type: in vivo; conditions: iv, i.v. bolus, with 500 mg/m2 5-FU, mean
T1 construct: from tissue; host or cells: colorectal liver metastasis tissue from human patients
Text: The difference in a clinical setting in human patients between leucovorin and arfolitixorin has been analyzed by Taflin et al. in the Modelle 001 Phase 2 clinical study (TS-inhibition in Colorectal Liver Metastases Comparing Arfolitixorin and Calciumfolinate), the primary objective of which is to compare the TS-inhibtion capacity of the combination Arfolitixorin/5-FU in contrast to Calciumfolinate/5-FU in tumour, adjacent liver parenchyma and plasma in patients with liver metastases from colorectal cancer (Study Details | Modelle 001, TS-inhibition in Colorectal Liver Metastases Comparing Arfolitixorin and Calciumfolinate | ClinicalTrials.gov) (Taflin 2023).
(§1) The effectiveness of arfolitixorin vs. leucovorin in Thymidylate Synthase inhibition and in achieving high levels of [6R] 5,10-methylenetetrahydrofolate in metastatic tissue was investigated in the Modelle-001 Phase II clinical trial named "A Single-blinded, Randomized Phase II study investigating the effects of two doses of Arfolitixorin compared to Calcium folinate together with 5-fluorouracil on thymidylate synthase in tumour and adjacent hepatic tissue for patients with liver metastases from colorectal cancer". Link: Study Details I Modelle 001, TS-inhibition in Colorectal Liver Metastases Comparing Arfolitixorin and Calciumfolinate I Clinical-Trials.gov.
(§2) Aim: The Modelle-001 trial was designed to explore how a single intravenous bolus injection of Arfo as compared to LV in the form of calcium folinate, together with 5-FU affects the inhibition of TS and, further, to investigate how different forms and doses of folates affect folate concentration and polyglutamation in metastatic liver tissue.
Patients and Methods: Thirty adult patients with biopsy-verified colorectal cancer and liver metastases indicated for surgical removal were included at two Swedish University Hospitals. Both synchronous and metachronous liver metastases were accepted and most patients had received preoperative chemotherapy. […] Folate levels and TS inhibition were determined by LC-MS/MS.

[1] = cited from earlier work
[2] = cited from earlier work; remark: listed apart in the source
[3] = Modelle-001 Phase II clinical trial: folate concentration and polyglutamation in metastatic liver tissue (LC-MS/MS); type: in vivo, human; conditions: compared to LV60; for ratio of poly/monoglutamated folates: after 5-FU administration
Text: as §1, §2
Patients and Methods: Thirty adult patients with biopsy-verified colorectal cancer and liver metastases indicated for surgical removal were included at two Swedish University Hospitals. Both synchronous and metachronous liver metastases were accepted and most patients had received preoperative chemotherapy. The first six patients received a reduced 5-FU dosage (250 mg/m2), and an independent safety committee gave permission to escalate to full dosage. Twenty-four patients were randomized to receive 500 mg/m2 5-FU either in combination with 60 mg/m2 LV (LV60, n = 12), 30 mg/m2 Arfo (A30, n = 6) or 120 mg/m2 Arfo (A120, n = 6) as a bolus regimen (a slow i.v. injection for three minutes). Metastatic tissue was collected 60 minutes after folate administration, then 5-FU was given. After a 60-minute break, metastatic tissue was again collected. Folate levels and TS inhibition were determined by LC-MS/MS.

solid tumors = experiment: Phase I/IIa study ISO-CC-005: tumour response to arfolitixorin doublet regimens (ARFIRI/ARFOX); type: in vivo, human; conditions: 120 mg/m^2 arfolitixorin and 5-FU with either irinotecan or oxaliplatin (ARFIRI/ARFOX)
Protocol: Arfolitixorin has been in development for a number of years and has been studied in several clinical studies.
The completion of the study was announced in January 2020. In total, 105 patients were included in the study. […] These patients had been treated with the "doublet" regimens comprising 120 mg/m^2 arfolitixorin and 5-fluorouracil (5-FU) with either irinotecan or oxaliplatin (ARFIRI/ARFOX). Out of the 31 patients, 17 were treated with an ARFOX regimen.

[4] = [6R]-MTHF levels after arfolitixorin versus comparable leucovorin treatment; type: in vivo; conditions: fold higher than leucovorin
Text: Leucovorin and I-leucovorin, both currently approved for treatment of gastrointestinal and other cancers, need to be metabolically activated to [6R]-MTHF to potentiate the effect of 5-FU. This dependency on cellular activation provides a hurdle for reaching sufficient levels of the active [6R]-MTHF. […] Secondly, the enzymatic activation is genetically regulated^16,18, and is therefore associated with variability between individuals and conditions. Arfolitoxirin is believed to be efficacious in a larger proportion of patients with less inter- and intra-individual variability. These differences may potentially turn out to be of significant importance for increased clinical efficacy in 5-FU based cancer treatment.

[5] = tested on: advanced metastatic colorectal adenocarcinoma; conditions: FOLFIRINOX (± cetuximab) supplemented with pyridoxine in high doses, cited from earlier work

T1 sequence (P04818 2-313 limits assumed): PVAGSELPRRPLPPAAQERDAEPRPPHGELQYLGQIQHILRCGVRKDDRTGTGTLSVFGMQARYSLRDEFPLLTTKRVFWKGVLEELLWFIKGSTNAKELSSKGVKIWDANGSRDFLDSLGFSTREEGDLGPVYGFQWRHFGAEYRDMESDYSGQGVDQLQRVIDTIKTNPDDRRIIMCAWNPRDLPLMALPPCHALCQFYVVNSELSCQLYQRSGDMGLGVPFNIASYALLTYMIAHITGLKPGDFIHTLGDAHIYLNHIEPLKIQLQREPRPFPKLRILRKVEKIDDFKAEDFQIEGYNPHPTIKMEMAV

**Q.** For Nc1nc2c(c(=O)[nH]1)N(C=O)C(CNc1ccc(C(=O)N[C@@H](CCC(=O)O)C(=O)O)cc1)CN2 (stereo partly shown) [Leucovorin, 5-formyl tetrahydrofolic acid, reference compound], which inhibition at 60 mg/m2 (thymidylate synthase; 60 mg/m2 Leucovorin (LV60)) is on record?
**A.** 25.4%

**Q.** Which results are given for Cc1ncc(CO)c(CO)c1O.Cl [Pyridoxine hydrochloride]?
**A.** volume of water in which one gram dissolves [1]: 5 mL; stability in air ([2]; air): stable in air; stability to sunlight ([2]; sunlight): slowly affected by sunlight

**Q.** With Nc1nc2c(c(=O)[nH]1)N1CN(c3ccc(C(=O)N[C@@H](CCC(=O)O)C(=O)O)cc3)C[C@H]1CN2 [arfolitixorin, [6R]-5,10-methylenetetrahydrofolate] as the compound, how does the “ratio of poly/monoglutamated folates” value ([3]; 30 mg/m2 (A30), p = 0.045) read?
**A.** higher

**Q.** And the “5,10-methylenetetrahydrofolate (CH2THF) concentrations in metastases” value (shortened to “5,10-methylenetetrahydrofolate”) ([3]; 30 mg/m2 (A30), after 5-FU treatment, p = 0.031)?
**A.** higher

**Q.** What about the “5,10-methylenetetrahydrofolate” value ([3]; 30 mg/m2 (A30), before 5-FU treatment, p = 0.037) of the same compound?
**A.** higher

**Q.** What about the “ratio of poly/monoglutamated folates” value ([3]; 120 mg/m2 (A120), p = 0.0049) of the same compound?
**A.** higher

**Q.** What about the “5,10-methylenetetrahydrofolate” value ([3]; 120 mg/m2 (A120), after 5-FU treatment, p = 0.0023) of the same compound?
**A.** higher

**Q.** What about the “5,10-methylenetetrahydrofolate” value ([3]; 120 mg/m2 (A120), before 5-FU treatment, p = 0.0003) of the same compound?
**A.** higher

**Q.** And the inhibition at 30 mg/m2 (thymidylate synthase; 30 mg/m2 arfolitixorin (A30))?
**A.** 54.2%

**Q.** And the inhibition at 120 mg/m2 (thymidylate synthase; 120 mg/m2 arfolitixorin (A120))?
**A.** 83.8%

**Q.** And the “best overall response rate (ORR)” value (solid tumors)?
**A.** 55%

**Q.** And the “[6R]-MTHF levels relative to comparable treatment with leucovorin” value [4]?
**A.** 3-4 times

**Q.** Which “toxicity associated with the pyridoxine-modified protocols” value [5] does the source give for Cc1ncc(CO)c(CO)c1O [pyridoxine] here?
**A.** of the same magnitude as expected for the standard protocols

**Q.** And the Antitumor activity ([5]; five patients, no controls)?
**A.** high for several patients
